We go through two substances from patent US20250057928A1, “VACCINE COMPOSITION FOR INDUCING ANTI-IL-23 ANTIBODY” (OSAKA UNIVERSITY, priority 2021, published 2025).

Test [1] deals with BALB/c mice. As to the kind of experiment: rmIL-23-induced mouse auricle inflammation model. Type of test: in vivo. Here is the method:
AJP001 conjugated peptide (SEQ ID NO: 2) was dissolved in physiological saline and intradermally administered to BALB/c mice (female, 6-week-old, N=8) at 1 mg/body 3 times at two-week intervals. At the time point of 6 weeks after the initial administration, rmIL-23 was administered intradermally to the ear to induce inflammation. With the first administration as Day 0, rmIL-23 was administered 4 times in total on Days 2, 4, and 7. As a control group, an rmIL-23 group without administration of peptide was provided. Auricular thickness was measured using a thickness gauge on each day of administration of rmIL-23 and on Day 9. In order to measure the mRNA expression of IL-17A, IL-22, IL-1β, LCN-2, and CXCL-2 in the auricle, the auricle was collected on the third day of rmIL-23 administration under the same conditions. For mRNA evaluation, a normal group without administration of rmIL-23 was set. […] Using TaqMan Gene Expression Assays (S18: Mm02601777_g1; CXCL-2: Mm00436450_m1; IL-17A: Mm00439618_m1; IL-22: Mm01226722_m1; IL-1β: Mm00434228_m1; LCN-2: Mm01324470_m1), Ct value was measured using Applied Biosystems 7900HT Fast Real Time PCR System. The mRNA expression level was calculated by the ΔΔCt method and evaluated as a relative value to the normal group. […]

Test [2] relates to BALB/c mice. The test is described as follows: rhIL-23-induced mouse auricle inflammation model. As to conditions: 1 mg/body 3 times. Type of test: in vivo. Here is the method: AJP001 conjugated peptide (SEQ ID NO: 6) was dissolved in physiological saline and administered to BALB/c mice (female, 6-week-old, N=8) at 1 mg/body 3 times at two-week intervals. At the time point of 6 weeks after the initial administration, rhIL-23 was administered intradermally to the ear to induce inflammation. rhIL-23 was administered every day and 4 times in total. As a control group, an rhIL-23 group without administration of AJP001 conjugated peptide was provided. Auricular thickness was measured using a thickness gauge at the time points of 3 days and 4 days after rhIL-23 administration. In addition, the mRNA expression of IL-17A, IL-22, IL-1β, LCN-2, and CXCL-2 in the auricle was measured. The results of efficacy evaluation of the AJP001 conjugated peptide (SEQ ID NO: 6) on auricular thickness and mRNA expression are shown in FIG. 6. In FIG. 6, “*” means that it is significant (P<0.05) compared with “rhIL-23”. “#” means that it is significant (P<0.05) compared with “Normal (normal group)”.

Where no end group is shown, it is not given here.

For the substance “SEQ ID NO 2: AJP001-Ahx-B cell epitope peptide conjugate; epitope SSSQQWQR (mouse 152-159) (not fully specified (N-terminus); listed as Mus musculus)”, the “mRNA expression of IL-17A, IL-22, IL-1β, LCN-2, and CXCL-2 in auricle” value with BALB/c mice [1] (1 mg/body 3 times, third day of rmIL-23 administration) is “suppressive action”. The “increase in auricular thickness” value in the test on BALB/c mice [1] (1 mg/body intradermal 3 times, rmIL-23 intradermal to ear from week 6) was “suppressive action”.
With “SEQ ID NO 6: AJP001-Ahx-B cell epitope peptide conjugate; epitope SPSQPWQR (human 151-158) (not fully specified (N-terminus); listed as Homo sapiens)”, the “mRNA expression of IL-17A, IL-22, IL-1β, LCN-2, and CXCL-2 in auricle” value in the test on BALB/c mice [2] (rhIL-23 to ear) is “suppressive action”. Besides, the “increase in auricular thickness” value in the test with BALB/c mice [2] (rhIL-23 to ear daily 4 times from week 6, day 3 and 4) is reported as “suppressive action”.
